From patent publication US20210214341A1, “SUBSTITUTED PYRIDINYL AZETIDINONE DERIVATIVES FOR USE IN TREATING CANCER AND OTHER DISEASES” (The Board of Regents of the University of Texas System, priority 2018, published 2021)
Read-outs that look alike come from different tables or passages of the source.

Columns and labels:
[1] = tested on: pancreatic cancer cells PANC-1 (ATCC CRL-1469); assay: SRB (Sulforhodamine B) assay in PANC-1 cells; assay type: cell-based; settings: Homo sapiens, PANC-1
Protocol: (§1) FIGS. 1A-1B show the IC50 curves of the twelve investigational β-lactams in pancreatic cancer cells PANC-1 (ATCC CRL-1469) and normal pancreatic ductal epithelial cells (ATCC CRL-4038). The GraphPad Prism software was used to process the results. The IC50 values were determined by SRB (Sulforhodamine B) assay following standard procedure. PANC-1 cells were plated in 96 well plates and treated with 1, 10, 100, 1000 and 10,000 nM of each of the drugs in triplicate for 72 hrs. Cells were fixed, washed and stained with SRB dye, the stained cells were washed, and the dye solubilized. It was read using a plate reader at 565 nm. The IC50 values were calculated assuming that the 10 μM sample has reached saturation. Following similar way, IC50 values were determined for normal pancreatic ductal epithelial cells.
(§2) As mentioned earlier, PANC-1 is referred to generically as the “gold standard of pancreatic cancers” representing as it does almost total resistance to GEM, the first line treatment currently used in clinical situations. Pancreatic cancer cells PANC-1 (ATCC CRL-1469) and normal pancreatic ductal epithelial cells (ATCC CRL-4038) were used in this study. The GraphPad Prism software was used to process the results. […] Cells were fixed, washed and stained with SRB dye, the stained cells were washed, and the dye solubilized. It was read using a plate reader at 565 nm. The IC50 values were calculated assuming that the 10 μM sample has reached saturation. Following similar way, IC50 values were determined for normal pancreatic ductal epithelial cells.

[2] = tested on: normal pancreatic ductal epithelial cells (ATCC CRL-4038); assay: SRB (Sulforhodamine B) assay in normal pancreatic ductal epithelial cells; assay type: cell-based; settings: Epithelial cell; 2D-culture, SRB, average of 3 runs; read-out: IC50 (NPC)
Protocol: as §1, §2

HPAC = assay: Cytotoxicity IC50 in HPAC cells; assay type: cell-based; settings: Homo sapiens; HPAC cell line; read-out: IC50 (mean ± standard error)
From the text: (§3) B. Cytotoxicity Studies: Determination of IC50 Values (Single Run) in Capan-2, HPAC. HPAF-II, and HS766T Cell Lines
(§4) Capan-2, HPAC. HPAF-H, and HS766T. The compounds A, D, E, G, and H were chosen randomly, out of twelve β-laclam molecules, to carry out this evaluation.

CaPan-2 = assay: Cytotoxicity IC50 in CaPan-2 cells; assay type: cell-based; settings: Homo sapiens; CaPan-2 cell line; read-out: IC50 (mean ± standard error)
From the text: as §3, §4

PANC-1 cells [3] = assay: Flow cytometric cell cycle analysis; assay type: cell-based, human; settings: tested for 24, 48 and 72 hrs
Protocol: The noise was cleared. […] After 72 hrs all the cells (including floaters) were collected, the adhered cells were trypsinized and collected as well. The cells were then centrifuged in a 50 mL centrifuge tube. The pellet was washed with PBS and reconstituted in 500 μL PBS. The cells were then fixed in ice cold ethanol by adding the ethanol dropwise while gently vortexing the cells. Stored at 4° C. for overnight. The cells were then centrifuged, and the pellet reconstituted in Guava cell cycle reagent and analyzed in a Guava flow cytometer. A similar experiment was conducted with normal pancreatic ductal epithelial cells (NPC) and the drug treatment was done according to the IC50 values observed in the 2D assay conducted on them (Table E). Please note that 2N represents G0/G1 and 4N for G2 phases.
After 72 hrs all the cells (including floaters) were collected, the adhered cells were trypsinized and collected as well. The cells were then centrifuged in a 50 mL centrifuge tube. The pellet was washed with PBS and reconstituted in 500 μL PBS. The cells were then fixed in ice cold ethanol by adding the ethanol dropwise while gently vortexing the cells. […] The cells were then centrifuged, and the pellet reconstituted in Guava cell cycle reagent and analyzed in a Guava flowcytometer. […] First set of data with PANC-1 cells were analyzed by using FlowJo software, the noise was cleared (FIG. 3). […]

HPAF-II = assay: Cytotoxicity IC50 in HPAF-II cells; assay type: cell-based; settings: Homo sapiens; HPAF-II cell line; read-out: IC50 (mean ± standard error)
From the text: as §3, §4

HS 766T = assay: Cytotoxicity IC50 in HS 766T cells; assay type: cell-based; settings: Homo sapiens, Hs766T; HS 766T cell line; read-out: IC50 (mean ± standard error)
From the text: as §3, §4

PANC-1 tumorspheres = assay: 3D-tumorsphere formation assay; assay type: cell-based, human
Protocol: Number of tumorspheres formed can be used to distinguish the efficacy of different anticancer drugs in a more physically acceptable method than 2D culture. Based on selectivity and toxicity towards PANC-1 cells in comparison to normal pancreatic ductal epithelial cells (Table D), six compounds (A, B, C, E, F, and G) were chosen for the 3D-tumorsphere formation assay. The assay was carried out by following the protocol developed by Johnson et al., (2013). PANC-1 cells (5000) were plated as single cells in Corning ultra-low attachment 24 well plates in 0.5 ml DMEM+10% FBS. The cells were grown in a humidified atmosphere of 5% CO2 for 168 hrs. 0.1 ml Media was added on 72nd and 144 hrs. The β-lactams were dissolved in DMSO and maintained at −20° C. On the day of assay, on the addition of media, the drugs were freshly diluted in media. The final concentrations of drugs were 0, 1 nM, 10 nM, 100 nM, 1 uM, 10 μM. After 144 hours the total number tumorspheres that were larger than 100 micrometers were counted in a field of 1 mm×1 mm at 10× magnification in a bright field microscope. The data was plotted and the IC50 value was calculated.
3D-tumorsphere formation assay is considered to be a fast and economical intermediary step between in vitro and in vivo biological evaluations. A tumorsphere is a solid, spherical formation developed from the proliferation of a single cancer stem/progenitor cell in 3D culture. These cells are easily distinguishable from single or aggregated as they appear to become fused together and individual cells cannot be appearing to become fused together and individual cells cannot be identified. The size can vary from less than 50 micrometers to 250 micrometers. The number of tumorspheres formed can be used to characterize the cancer stem cell population within different in vitro cultured cancer cell lines. The number of tumorspheres formed can also be used to distinguish the efficacy of different anticancer drugs in a more physically acceptable method than 2D culture. Based on selectivity and toxicity towards PANC-1 cells in comparison to normal pancreatic ductal epithelial cells (Table D), six compounds (A, B, C, E, F, and G) were chosen for the 3D-tumorsphere formation assay. The assay was carried out by following the protocol developed by Johnson et al., (2013). […] The below steps were followed to accomplish the assay. • 5000 PANC-1 cells were plated as single cells in Corning ultra-low attachment 24 well plates in 0.5 ml DMEM+10% FBS. • Cells were grown in a humidified atmosphere of 5% CO2 for 168 hrs. 0.1 ml Media was added on 72nd and 144 hrs. • Drugs were dissolved in DMSO and maintained at −20° C. On the day of assay, on the addition of media, the drugs were freshly diluted in media. • The final concentrations of drugs were 0, 1 nM, 10 nM, 100 nM, 1 μM, 10 μM. • After 144 hrs the total number tunorspheres that were larger than 100 micrometers were counted in a field of 1 mm×1 mm at 10× magnification in a bright field microscope. The data was plotted and the IC50 value was calculated.

PANC-1 cells [4] = assay: BrdU incorporation immunostaining; assay type: cell-based, human; settings: compared to control
Protocol: BrdU (5-bromo-2′-deoxyuridine) incorporation to proceed with immunostaining coverslip slides with Prolong® Gold Antifade reagent were visualized under microscope. Alexa Fluor® 488 (green) was used for BrdU staining along with nuclear marker DAPI (blue). BrdU images were co-localized with nuclear marker DAPI blue.
Diluted BrdU in fresh, pre-warmed growth medium to a final concentration of 0.03 mg/mL. This mixture was added to cells and incubated at 37° C. for 30 min. The medium was aspirated; cells were completely covered with 70% ethanol for 5 min. The fixative was aspirated and the cells were rinsed three times in 1×PBS for 5 min each. Therefore, 1.5 mL HCl and incubated for 30 min at room temperature. Then the HCl was aspirated and rinsed to times in 1×PBS for 5 min each. Subsequent proceeding for immunostaining followed the below steps: The cells were submerged with blocking buffer for 60 min and subsequently incubated with primary antibody (BrdU Mouse mAb) for overnight at 4° C. Therefore, the cells were rinsed three times in 1×PBS for 5 min each and incubated in fluorochrome-conjugated secondary antibody diluted in antibody dilution buffer for 1-2 h at room temperature in the dark and then rinsed for three times in 1×PBS for 5 min each. Coverslip slides with Prolong® Gold Antifade reagem were visualized under microscope. […]

[5] = tested on: Phospho-Histone H2A.X (Ser139) in PANC-1 cells; assay: ICC-IF with Phospho-Histone H2A.X (Ser139) (γ-H2AX staining); assay type: cell-based, human; settings: 1 μM, compared to control
From the text: This immunocytochemistry-immunofluorescence (ICC-IF) with Phospho-Histone H2A.X (Ser139) assay enables the quantitative detection of the histone variant H2AX, phosphorylated on serine 139. This modification serves as a sensitive biomarker for the detection of such breaks, localizing the site of DNA repair. Gamma-H2AX triggers cell cycle arrest and DNA damage response repair, and this assay is used to study genome stability, the cell cycle, DNA repair, and it serves as a biomarker for cancer and offers enhanced convenience over other immunoassay technologies. The PANC-1 cells were grown, treated with 1 μM concentration of the compound “D”, fixed and strained directly in chamber slides. Cells were submerged with blocking buffer for 60 min and then incubated with primary antibody Phospho-Histone H2A.X (Ser139) for overnight at 4° C. Then the cells were rinsed for three times in 1×PBS for 5 min each. The specimen was incubated in fluorochrome-conjugated secondary antibody diluted in antibody dilution buffer for 1-2 h at room temperature in the dark and then rinsed for three times in 1×PBS for 5 min each. […]
This assay was also performed with the compound D, prior to the determination of IC50 values in normal pancreatic ductal epithelial cell lines. This assay enables the quantitative detection of the histone variant H2AX, phosphorylated on serine 139. […]

PANC-1 cells [6] = assay: Annexin V assay to determine apoptosis; assay type: cell-based, human; settings: 0.5, 1, and 2 μM, 16 hrs
Protocol: Cell death was identified as apoptosis through Annexin V assay. For this study, PANC-1, the most commonly known drug-resistance pancreatic cancer cell line was used. […] Error bars show standard deviation (n=3). For optimal throughput, final cell concentrations were maintained between 2×10^4 and 1×10^5 cells/well (or 1×10^5 to 5×10^5 cells/mL). Doxorubicin was used as control at a concentration of 5 μM for 16 hrs. For this study, PANC-1, the most commonly known drug-resistance pancreatic cancer cell lines were used. […] Error bars show standard deviation (n=3). For optimal throughput, final cell concentrations were maintained between 2×10^4 and 1×10^5 cells/well (or 1×10^5 to 5×10^5 cells/mL). Doxorubicin was used as a control at a concentration of 5 uM for 16 hrs (FIG. 5). Apoptosis was identified as the mechanism of cell death.

[7] = tested on: drug-resistant pancreatic cancer cell lines; assay: IC50 against drug-resistant pancreatic cancer cell lines; assay type: cell-based; settings: Homo sapiens, range over cell lines
[8] = 2D-culture, SRB, 72 hrs, average of 3 runs, read-out: IC50 (PANC-1)

| Structure (SMILES) | IC50 [1, 8] | IC50 [2] | IC50 (HPAC) | IC50 (CaPan-2) | time of maximum cell cycle blockage (PANC-1 cells [3]) | IC50 (HPAF-II) | IC50 (HS 766T) | activity in 3D-tumorsphere formation assay compared with 2D-culture (PANC-1 tumorspheres) | IC50 (PANC-1 tumorspheres; Homo sapiens, tumorspheres larger than 100 micrometers counted after 144 hrs) | rate of DNA replication and subsequent cell proliferation (BrdU incorporation) (PANC-1 cells [4]) | γ-H2AX (phospho-H2AX) staining [5] | mechanism of cell death (PANC-1 cells [6]) | IC50 ([1]; in vitro, triplicate, read-out: PANC-1 cell lines IC50) | IC50 [7] |
| --- | --- | --- | --- | --- | --- | --- | --- | --- | --- | --- | --- | --- | --- | --- |
| CS(=O)(=O)O[C@@H]1C(=O)N(c2cc3c4ccccc4ccc3c3ccccc23)[C@H]1c1ccc(F)cn1 (racemic) [A, (±)-Trans-N-(chrysen-6-yl)-2-(5-fluoropyridin-2-yl)-4-oxoazetidin-3-yl methanesulfonate] | 0.0212 µM | 0.449 µM | > 10 µM | > 10 µM | 72 h | 0.98 ± 0.38 µM | 0.24 ± 0.38 µM | higher activity in 3D-tumorphere formation assay than 2D-culture | 0.0181 µM | – | – | – | – | – |
| O=C1[C@@H](OS(=O)(=O)C2CCC2)[C@H](c2ccc(F)cn2)N1c1cc2c3ccccc3ccc2c2ccccc12 (racemic) [D, (±)-Trans-N-(chrysen-6-yl)-2-(5-fluoropyridin-2-yl)-4-oxoazetidin-3-yl cyclobutanesulfonate] | 0.118 µM | 0.0608 µM | – | – | – | 1.39 ± 0.4 µM | 0.73 ± 0.4 µM | – | – | significantly low | positive staining | Apoptosis | – | – |
| Nc1ccn([C@@H]2O[C@H](CO)[C@@H](O)C2(F)F)c(=O)n1 [Gemcitabine, reference compound] | 37.9 µM | – | > 50 µM | > 50 µM | – | > 50 µM | 16.3 ± 0.6 µM | – | – | – | – | – | 37.9 µM | ≥ 16 µM |
